In brackets after ≈: the same amount, converted by molar mass.

These results are taken from DBAASP.

Some test systems named below: Escherichia coli UB1005; Acinetobacter baumannii; Escherichia coli; Pseudomonas aeruginosa; Staphylococcus aureus.
Common to all, as to experiment: ≥ marks a high value that may be exact or a test limit, other limits are often not marked, values filed in µg/mL are converted to µM
Assay [1] concerns Candida albicans ATCC 90028.
Assay [2] relates to Escherichia coli ATCC 25922.
The subject of assay [3] is Staphylococcus aureus NCTC 8325.
Assay [4] deals with Bacillus subtilis KCTC 3068.
Assay [5] concerns Escherichia coli KCTC 1682.
Assay [6] relates to Pseudomonas aeruginosa KCTC 1637.
In assay [7] the test system is Salmonella typhimurium KCTC 1926.
In assay [8] the test system is Staphylococcus aureus KCTC 1621.
The test system of assay [9] is Staphylococcus epidermidis KCTC 1917.
Assay [10] has as its system Escherichia coli ATCC 8739.
The test system of assay [11] is Staphylococcus aureus ATCC 25923.
The subject of assay [12] is Salmonella enterica subsp. enterica serovar Typhimurium C77-31.
For assay [13], the system named is Staphylococcus aureus ATCC 29213.
The subject of assay [14] is Staphylococcus epidermidis ATCC 12228.

As for `CC[C@H](C)[C@@H]1NC(=O)[C@@H](NC(=O)[C@H](CCCCN)NC(=O)[C@H](CC(C)C)NC(=O)CNC(=O)[C@H](CCC(N)=O)NC(=O)[C@H](CC(C)C)NC(=O)[C@H](CC(C)C)NC(=O)[C@H](CCCCN)NC(=O)CNC(=O)[C@H](C)NC(=O)[C@H](CC(C)C)NC(=O)CNC(=O)[C@H](CCCCN)NC(=O)[C@H](CC(C)C)NC(=O)[C@@H](NC(=O)[C@H](CC(=O)O)NC(=O)[C@H](CC(C)C)NC(=O)[C@H](Cc2ccccc2)NC(=O)[C@H](CC(C)C)NC(=O)CN)[C@@H](C)O)CSSC[C@@H](C(=O)N[C@@H](CCCCN)C(=O)N2CCC[C@H]2C(=O)O)NC(=O)CNC(=O)[C@H](C)NC(=O)[C@H](CCCCN)NC1=O` [GLFLDTLKGLAGKLLQGLKCIKAGCKP], the MIC in [1] is not below 46 µM; in assay [2] it was 2 µM (≈ 5.57 µg/mL); in [3], not below 40 µM.
As to `CC(C)C[C@H](NC(=O)[C@H](Cc1ccc(O)cc1)NC(=O)[C@H](Cc1cnc[nH]1)NC(=O)[C@@H](NC(=O)[C@H](CC(C)C)NC(=O)[C@H](C)NC(=O)[C@H](C)NC(=O)[C@H](CCCCN)NC(=O)CNC(=O)[C@@H](NC(=O)[C@H](Cc1cnc[nH]1)NC(=O)[C@H](CCCCN)NC(=O)[C@H](C)NC(=O)[C@@H](NC(=O)[C@H](Cc1cnc[nH]1)NC(=O)[C@H](C)NC(=O)[C@H](C)NC(=O)[C@H](CCCCN)NC(=O)[C@H](CCCCN)NC(=O)[C@H](Cc1ccccc1)NC(=O)[C@H](Cc1ccccc1)NC(=O)[C@H](CO)NC(=O)CNC(=O)[C@H](Cc1c[nH]c2ccccc12)NC(=O)CN)C(C)C)C(C)C)[C@@H](C)O)C(=O)O` [GWGSFFKKAAHVAKHVGKAALTHYL], the MIC is 4 µM (≈ 10.9 µg/mL) in [4]; 4 µM (≈ 10.9 µg/mL) in assay [5]; 2 µM (≈ 5.45 µg/mL) in [6]; 2 µM (≈ 5.45 µg/mL) in assay [7]; 1 µM (≈ 2.73 µg/mL) in assay [8]; 1 µM (≈ 2.73 µg/mL) in [9].
Turning to `CC[C@H](C)[C@H](NC(=O)[C@H](CCCCN)NC(=O)[C@H](Cc1c[nH]c2ccccc12)NC(=O)[C@H](Cc1ccccc1)NC(=O)[C@H](CC(C)C)NC(=O)[C@H](CCCCN)NC(=O)[C@H](CCCCN)NC(=O)[C@@H](N)CCCCN)C(=O)N1CCC[C@H]1C(=O)N[C@@H](CCCCN)C(=O)N[C@@H](Cc1ccccc1)C(=O)N[C@@H](CC(C)C)C(=O)N[C@@H](Cc1cnc[nH]1)C(=O)N[C@@H](CC(C)C)C(=O)N[C@@H](C)C(=O)N[C@@H](CCCCN)C(=O)N[C@@H](CCCCN)C(=O)N[C@@H](Cc1ccccc1)C(N)=O` [KKKLFWKIPKFLHLAKKF], the MIC in assay [4] amounted to 1 µM (≈ 2.3 µg/mL); in assay [5], 2 µM (≈ 4.6 µg/mL); in assay [6], 2 µM (≈ 4.6 µg/mL); in assay [7], 1 µM (≈ 2.3 µg/mL); in assay [8], 2 µM (≈ 4.6 µg/mL); in assay [9], 1 µM (≈ 2.3 µg/mL).
In assay [10], `CC[C@H](C)[C@H](NC(=O)[C@H](CCCCN)NC(=O)[C@H](CO)NC(=O)[C@H](C)NC(=O)[C@@H](NC(=O)[C@H](CCCN=C(N)N)NC(=O)[C@H](CC(=O)O)NC(=O)[C@H](CC(C)C)NC(=O)[C@H](CC(C)C)NC(=O)[C@H](CCCCN)NC(=O)[C@H](CC(C)C)NC(=O)[C@@H](NC(=O)[C@@H](NC(=O)[C@H](CC(N)=O)NC(=O)[C@H](CC(N)=O)NC(=O)[C@@H](NC(=O)[C@H](CCCCN)NC(=O)[C@H](CCCCN)NC(=O)[C@@H]1CCCN1)[C@@H](C)CC)[C@@H](C)O)[C@@H](C)CC)C(C)C)C(=O)O` [PKKINNTILKLLDRVASKI] registered an MIC of 29.6 µM (≈ 64 µg/mL).
As for `CC[C@H](C)[C@H](NC(=O)[C@H](CCCCN)NC(=O)[C@H](CO)NC(=O)[C@H](CO)NC(=O)[C@H](CC(C)C)NC(=O)[C@H](CCCCN)NC(=O)[C@H](CCCCN)NC(=O)[C@H](CC(C)C)NC(=O)[C@H](CC(C)C)NC(=O)[C@H](CCCCN)NC(=O)[C@H](CCC(N)=O)NC(=O)[C@H](Cc1ccc(O)cc1)NC(=O)[C@H](Cc1ccccc1)NC(=O)[C@H](CCC(N)=O)NC(=O)[C@H](CO)NC(=O)[C@H](CCC(=O)O)NC(=O)[C@H](CCCN=C(N)N)NC(=O)[C@H](CC(N)=O)NC(=O)[C@@H]1CCCN1)C(=O)O` [PNRESQFYQKLLKKLSSKI], the figures for the MIC in assay [10] and in assay [11] were not below 111 µM and 111 µM (≈ 256 µg/mL), respectively.
For `CC(C)C[C@H](NC(=O)[C@H](CCCN=C(N)N)NC(=O)[C@H](CCCCN)NC(=O)[C@H](CCCN=C(N)N)NC(=O)[C@@H](NC(=O)[C@H](CCCCN)NC(=O)[C@H](CCCCN)NC(=O)[C@H](CCCN=C(N)N)NC(=O)[C@H](CC(C)C)NC(=O)[C@H](CCCN=C(N)N)NC(=O)[C@@H](N)CCCN=C(N)N)[C@@H](C)O)C(=O)N[C@@H](CCCCN)C(N)=O` [RRLRKKTRKRLK], the MIC is more than 128 µM in [2]; not below 64 µM with Escherichia coli UB1005; not below 128 µM in [12]; more than 128 µM in assay [11]; more than 128 µM in assay [13]; more than 128 µM in [14].
For the molecule `CC(C)C[C@H](NC(=O)[C@H](CCCN=C(N)N)NC(=O)[C@@H](NC(=O)[C@H](CCCN=C(N)N)NC(=O)[C@@H](NC(=O)[C@H](CCCCN)NC(=O)[C@@H](NC(=O)[C@H](CCCN=C(N)N)NC(=O)[C@H](CC(C)C)NC(=O)[C@H](CCCN=C(N)N)NC(=O)[C@@H](N)C(C)C)C(C)C)[C@@H](C)O)C(C)C)C(=O)N[C@@H](CCCCN)C(N)=O` [VRLRVKTRVRLK], the MIC stood at 4 µM (≈ 6.09 µg/mL) in [2]; 4 µM (≈ 6.09 µg/mL) against Escherichia coli UB1005; 16 µM (≈ 24.4 µg/mL) in assay [12]; 64 µM (≈ 97.5 µg/mL) in assay [11]; 16 µM (≈ 24.4 µg/mL) in assay [13]; 32 µM (≈ 48.7 µg/mL) in assay [14].
For the molecule `CC(C)C[C@H](NC(=O)[C@H](Cc1c[nH]c2ccccc12)NC(=O)[C@H](CCCN=C(N)N)NC(=O)[C@H](CCCCN)NC(=O)[C@H](Cc1c[nH]c2ccccc12)NC(=O)[C@H](CCCN=C(N)N)NC(=O)[C@H](CCC(N)=O)NC(=O)[C@@H](NC(=O)[C@H](Cc1c[nH]c2ccccc12)NC(=O)[C@H](CCCN=C(N)N)NC(=O)[C@H](CCCCN)NC(=O)[C@@H](N)Cc1c[nH]c2ccccc12)C(C)C)C(=O)N[C@@H](CCCN=C(N)N)C(N)=O` [WKRWVQRWKRWLR], the minimal inhibitory concentration (MIC) stood at 8 µM (≈ 15.9 µg/mL) in assay [4]; 4 µM (≈ 7.93 µg/mL) in assay [5]; 16 µM (≈ 31.7 µg/mL) in [6]; 2 µM (≈ 3.97 µg/mL) in [7]; 2 µM (≈ 3.97 µg/mL) in assay [8]; 4 µM (≈ 7.93 µg/mL) in assay [9].
Regarding `CC(C)[C@H](NC(=O)[C@H](CCCCN)NC(=O)[C@H](Cc1c[nH]c2ccccc12)NC(=O)[C@H](CCCCN)NC(=O)[C@@H](NC(=O)[C@H](CCCCN)NC(=O)[C@H](Cc1c[nH]c2ccccc12)NC(=O)[C@H](CCCCN)NC(=O)[C@@H](NC(=O)[C@H](CCCCN)NC(=O)[C@@H](N)Cc1c[nH]c2ccccc12)C(C)C)C(C)C)C(=O)N[C@@H](CCCCN)C(N)=O` [WKVKWKVKWKVK], the MIC amounted to 1.41 µM (≈ 2.32 µg/mL) in the assay with Acinetobacter baumannii; 2 µM (≈ 3.28 µg/mL) in assay [2]; 2 µM (≈ 3.28 µg/mL) against Escherichia coli UB1005; 1 µM (≈ 1.64 µg/mL) in the assay on Escherichia coli; 4 µM (≈ 6.57 µg/mL) against Pseudomonas aeruginosa; 2 µM (≈ 3.28 µg/mL) in [12]. Moreover, the MIC in assay [11] is 2 µM (≈ 3.28 µg/mL); in [13] it was 1 µM (≈ 1.64 µg/mL); with Staphylococcus aureus, 2 µM (≈ 3.28 µg/mL); in assay [14] it was 2 µM (≈ 3.28 µg/mL).
On to `C[C@@H](O)[C@H](NC(=O)[C@H](CCCN=C(N)N)NC(=O)[C@H](Cc1c[nH]c2ccccc12)NC(=O)[C@H](CCCN=C(N)N)NC(=O)[C@@H](NC(=O)[C@H](CCCN=C(N)N)NC(=O)[C@H](Cc1c[nH]c2ccccc12)NC(=O)[C@H](CCCN=C(N)N)NC(=O)[C@@H](NC(=O)[C@H](CCCN=C(N)N)NC(=O)[C@@H](N)Cc1c[nH]c2ccccc12)[C@@H](C)O)[C@@H](C)O)C(=O)N[C@@H](CCCN=C(N)N)C(N)=O` [WRTRWRTRWRTR], for which the MIC against Acinetobacter baumannii is not below 32 µM; in assay [2], 4 µM (≈ 7.26 µg/mL); against Escherichia coli UB1005, 4 µM (≈ 7.26 µg/mL); against Escherichia coli it was 2 µM (≈ 3.63 µg/mL); with Pseudomonas aeruginosa it was more than 64 µM; in assay [12], 4 µM (≈ 7.26 µg/mL). The MIC in assay [11] is 8 µM (≈ 14.5 µg/mL); in assay [13] it was 4 µM (≈ 7.26 µg/mL); against Staphylococcus aureus it was 4 µM (≈ 7.26 µg/mL); in assay [14], 8 µM (≈ 14.5 µg/mL).
